Results: patent US20210269848A1, “COMPOSITION OF MICROORGANISMS INDICATING DECONTAMINATION” (NOVOLYZE, priority 2018, published 2021)

Tests used:
Enterococcus faecium = assay: Heat resistance (log loss) of E. faecium compositions with brilliant blue FCF at 100° C.; assay type: cell-based; details: 3% dye
Description: (§1) “Log loss” refers to the difference between initial viability and viability at a given time.
Method: The Enterococcus faecium strain in dry form was mixed with an inert support (maltodextrin) and with each dye individually. The subsequent mixture is placed in an Eppendorf tube in a dry bath at a temperature of 100° C. Samples were taken at 2, 5 and 10 min and cell counts were performed on TSA (Trypticase Soy Agar) medium for 24 h at 37° C.
Must: addition of 3% of blue dye powder to 5 mL of fermentation must in a sterile jar. Vortexing for homogenization, distribution in tubes and heat treatment.
Pure: addition of 3% of dye to 5 g of pure lyophilisate in a sterile jar. Vortexing for homogenization, distribution in tubes and heat treatment.
Support: addition of 1% of pure lyophilisate to 5 g of maltodextrin in a sterile jar (1/100 dilution). Vortexing for homogenization, then addition of 3% of dye. Vortexing then distribution in tubes and heat treatment.

E. faecium ATCC 8459 [1] = assay: Log loss after heat treatment on nonfat dried milk NFDM; assay type: cell-based; details: 3% dye
Description: as §1
(§2) The test is performed for the following 3 strains: E. faecium ATCC 8459, P. agglomerans CNCM I-5055 and A. pascens CNCM I-5181.
(§3) Addition of 10% of pure lyophilisate of the strains to 5 g of maltodextrin. Vortexing for homogenization. […] Vortexing. Addition of 1% of the dyed strain mixture diluted 1/10 to 5 g NFDM. Vortexing. Deposition of 0.1 g in Eppendorf tubes then heat treatment of the tubes in a dry bath at 90 and 100° C. for 2, 5 and 10 minutes

A. pascens CNCM I-5181 [2] = assay: as above; assay type: cell-based; details: 3% dye
Description: as §1, §2, §3

[3] = tested on: P. agglomerans CNCM I-5055; assay: as above; assay type: cell-based; details: 3% dye
Description: as §1, §2, §3

E. faecium ATCC 8459 [4] = assay: Log loss after heat treatment on black pepper; assay type: cell-based; details: 3% dye
Description: as §1
(§4) The test is performed for the following 3 strains: E. faecium ATCC 8459, P. agglomerans CNCM I-5055 and A. pascens CNCM I-5181
(§5) Addition of 10% of pure lyophilisate of the strains to 5 g of maltodextrin. Vortexing for homogenization. […] Vortexing. Addition of 1% of the dyed strain mixture diluted 1/10 to 5 g of black pepper followed by a spray of wet fixing agent for good adhesion. Mixing with a sterile spatula. Drying 2 h. Deposition of 0.2 g in Eppendorf tubes then heat treatment of the tubes in a dry bath at 90 and 100° C. for 2, 5 and 10 minutes

A. pascens CNCM I-5181 [5] = assay: Log loss after heat treatment on black pepper; assay type: cell-based; details: 3% dye
Description: as §1, §4, §5

[6] = tested on: P. agglomerans CNCM I-5055; assay: Log loss after heat treatment on black pepper; assay type: cell-based; details: 3% dye
Description: as §1, §4, §5

E. faecium ATCC 8459 [7] = assay: Log loss after heat treatment on macadamia; assay type: cell-based; details: 3% dye
Description: as §1, §2
(§6) Addition of 10% pure lyophilisate of the strains to 5 g of maltodextrin. Vortexing for homogenization. Addition of 3% of dye. Vortexing. Addition of 1% of the dyed strain mixture diluted 1/10 to 5 g of macadamia. Mixing with a sterile spatula. Drying 2 h. Deposition of 0.3 g in Eppendorf tubes then heat treatment of the tubes in a dry bath at 90 and 100° C. for 0, 2, 5, 10 minutes

A. pascens CNCM I-5181 [8] = assay: Log loss after heat treatment on macadamia; assay type: cell-based; details: 3% dye
Description: as §1, §2, §6

[9] = tested on: P. agglomerans CNCM I-5055; assay: Log loss after heat treatment on macadamia; assay type: cell-based; details: 3% dye
Description: as §1, §2, §6

## CCN(Cc1cccc(S(=O)(=O)O)c1)c1ccc(C(=C2C=CC(=[N+](CC)Cc3cccc(S(=O)(=O)O)c3)C=C2)c2ccccc2S(=O)(=O)[O-])cc1 [brilliant blue FCF]
Indicator microorganisms
  effect on viability of the indicator microorganisms: does not affect the viability of the indicator microorganisms
Enterococcus faecium; Must (fermentation must), 2 min
  Log loss at 100° C.: 1.23
Enterococcus faecium; Must (fermentation must), 5 min
  Log loss at 100° C.: 1.44
Enterococcus faecium; Must (fermentation must), 10 min
  Log loss at 100° C.: 2.16
Enterococcus faecium; Pure (lyophilisate without support), 2 min
  Log loss at 100° C.: 0.02
Enterococcus faecium; Pure (lyophilisate without support), 5 min
  Log loss at 100° C.: 0.17
Enterococcus faecium; Pure (lyophilisate without support), 10 min
  Log loss at 100° C.: 0.50
Enterococcus faecium; Support (maltodextrin), 2 min
  Log loss at 100° C.: 0.13
Enterococcus faecium; Support (maltodextrin), 5 min
  Log loss at 100° C.: 0.94
Enterococcus faecium; Support (maltodextrin), 10 min
  Log loss at 100° C.: 1.97
E. faecium ATCC 8459 [1]; 2 min
  Log loss at 90° C.: 0.51
  Log loss at 100° C.: 0.36
E. faecium ATCC 8459 [1]; 5 min
  Log loss at 90° C.: 0.36
  Log loss at 100° C.: 0.59
E. faecium ATCC 8459 [1]; 10 min
  Log loss at 90° C.: 0.46
  Log loss at 100° C.: 1.29
A. pascens CNCM I-5181 [2]; 2 min
  Log loss at 90° C.: 0.06
  Log loss at 100° C.: 0.26
A. pascens CNCM I-5181 [2]; 5 min
  Log loss at 90° C.: 0.46
  Log loss at 100° C.: 0.35
A. pascens CNCM I-5181 [2]; 10 min
  Log loss at 90° C.: 0.62
  Log loss at 100° C.: 1.82
[3]; 2 min
  Log loss at 90° C.: 0.07
  Log loss at 100° C.: 0.13
[3]; 5 min
  Log loss at 90° C.: 0.07
  Log loss at 100° C.: 0.67
[3]; 10 min
  Log loss at 90° C.: 0.37
  Log loss at 100° C.: 0.72
E. faecium ATCC 8459 [4]; 2 min
  Log loss at 90° C.: 0.31
  Log loss at 100° C.: 1.35
E. faecium ATCC 8459 [4]; 5 min
  Log loss at 90° C.: 0.82
  Log loss at 100° C.: 1.37
E. faecium ATCC 8459 [4]; 10 min
  Log loss at 90° C.: 1.46
  Log loss at 100° C.: 2.19
A. pascens CNCM I-5181 [5]; 2 min
  Log loss at 90° C.: 0.59
  Log loss at 100° C.: 0.27
A. pascens CNCM I-5181 [5]; 5 min
  Log loss at 90° C.: 0.76
  Log loss at 100° C.: 0.64
A. pascens CNCM I-5181 [5]; 10 min
  Log loss at 90° C.: 0.85
  Log loss at 100° C.: 0.85
[6]; 2 min
  Log loss at 90° C.: 1.12
  Log loss at 100° C.: 1.26
[6]; 5 min
  Log loss at 90° C.: 1.6
  Log loss at 100° C.: 1.45
[6]; 10 min
  Log loss at 90° C.: 1.77
  Log loss at 100° C.: 2.14
E. faecium ATCC 8459 [7]; 2 min
  Log loss at 90° C.: 0.2
  Log loss at 100° C.: 0.24
E. faecium ATCC 8459 [7]; 5 min
  Log loss at 90° C.: 0.53
  Log loss at 100° C.: 0.47
E. faecium ATCC 8459 [7]; 10 min
  Log loss at 90° C.: 1.2
  Log loss at 100° C.: 1.24
A. pascens CNCM I-5181 [8]; 2 min
  Log loss at 90° C.: 0.25
  Log loss at 100° C.: 0.05
A. pascens CNCM I-5181 [8]; 5 min
  Log loss at 90° C.: 0.18
  Log loss at 100° C.: 0.12
A. pascens CNCM I-5181 [8]; 10 min
  Log loss at 90° C.: 0.38
  Log loss at 100° C.: 0.6
[9]; 2 min
  Log loss at 90° C.: 0.3
  Log loss at 100° C.: 0.14
[9]; 5 min
  Log loss at 90° C.: 0.6
  Log loss at 100° C.: 0.15
[9]; 10 min
  Log loss at 90° C.: 0.14
  Log loss at 100° C.: 1.36
